Assay results from US20250222146A1, “Radiopharmaceuticals Targeting Somatostatin Receptor 2 and Uses Thereof” (RayzeBio, Inc., priority 2023, published 2025).
Numbered stars: 1 amine (or outer) side, 2 acyl side, 3 side chain; on linkers, the order of the positions; unused ones are H or OH. Square brackets hold non-standard residues; d marks the D form. Peptide text beside a SMILES is read from it. * marks the point of attachment. DOTA(Lu)NH(CH2)6NHCOCH2 = O=C(CN1CCN2CCN3CCN(CC1)CC(=O)[O][Lu]([O]C(=O)C2)[O]C(=O)C3)NCCCCCCNC(=O)C*; X3 = O=C(O)CN1CCN(CC(=O)O)CCN(CC(=O)NCCCCCCNC(=O)C*)CCN(CC(=O)O)CC1; dTrp(βS-Me) = C[C@@H](c1c[nH]c2ccccc12)[C@@H](N)C(=O)O; Phe(3-CONH2) = NC(=O)c1cccc(C[C@H](N)C(=O)O)c1; dTrp(6-F) = N[C@H](Cc1c[nH]c2cc(F)ccc12)C(=O)O; X4 = C[C@@H](c1ccccc1)[C@H](N[*:1])C(=O)[*:2]; Phe(3R-Me) = C[C@H](c1ccccc1)[C@H](N)C(=O)O; X22 = O=C([C@H](Cc1ccc(O)nc1)N[*:1])[*:2]; dNMeW = CN[C@H](Cc1c[nH]c2ccccc12)C(=O)O; 3Pal = N[C@@H](Cc1cccnc1)C(=O)O; 4Pal = N[C@@H](Cc1ccncc1)C(=O)O; NMehCys = CN[C@@H](CCS)C(=O)O; NMeK = CN[C@@H](CCCCN)C(=O)O

The compounds below were run against SSTR2 (Homo sapiens, UniProt P30874) (assay: SSTR binding affinity by radioligand binding competition assay ([125I]-Tyr11-Somatostatin, membrane extracts)). Details: SSTR2 Ki, radioligand competition, [125I]-Tyr11-Somatostatin 0.1 nM, membrane extracts; Ki from IC50 by Cheng Prusoff.
Chain of SSTR2 (P30874 whole entry): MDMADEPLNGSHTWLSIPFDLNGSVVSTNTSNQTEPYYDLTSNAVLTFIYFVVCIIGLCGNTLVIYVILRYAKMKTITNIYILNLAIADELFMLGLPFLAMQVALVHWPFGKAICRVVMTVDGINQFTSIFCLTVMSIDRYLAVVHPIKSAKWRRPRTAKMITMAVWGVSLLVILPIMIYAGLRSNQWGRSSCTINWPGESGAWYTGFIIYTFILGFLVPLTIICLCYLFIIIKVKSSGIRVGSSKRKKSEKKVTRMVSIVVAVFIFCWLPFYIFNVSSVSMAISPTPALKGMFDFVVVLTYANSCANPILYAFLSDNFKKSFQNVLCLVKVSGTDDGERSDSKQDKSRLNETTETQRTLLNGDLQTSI
Description: Macrocyclic peptides in this invention were tested for binding to SSTR protein by a radioligand binding competition assay. For radioligand binding assay, competition binding is performed in duplicate in the wells of a 96 well plate containing binding buffer (HEPES 25 mM pH 7.4, MgCl2 5 mM, CaCl2 1 mM, BSA 0.5%, Saponine 10 μg/ml)), membrane extracts (0.6 μg protein/well), radiotracer ([125I]-Tyr11-Somatostatin, Perkin Elmer NEX389) and test compound. Nonspecific binding is determined by co-incubation with 200-fold excess of cold competitor (SST28). The samples are incubated in a final volume of 0.1 ml for 60 min at room temperature and then filtered over UniFilter-96 GF/C (Revvity 6055690) filter plates. Filters are washed six times with 0.5 ml of ice-cold washing buffer (HEPES 25 mM pH 7.4, MgCl2 5 mM, CaCl2 1 mM) and 50 μl of Microscint 20 (Packard) are added in each well. The plates are incubated 15 min on an orbital shaker and then counted with a TopCount™ for 1 min/well. For IC50 to Ki determination, the Cheng Prusoff equation is used: Ki=IC50/(1+ [tracer]/Kd). [Tracer] is 0.1 nM as mentioned above.

| SMILES | Ki |
| --- | --- |
| C[C@H](O)[C@@H]1NC(=O)[C@H](CCCCN)NC(=O)[C@@H](Cc2c[nH]c3ccccc23)NC(=O)[C@H](Cc2ccc(O)cc2)NC(=O)[C@H](CCSCC(=O)NCCCCCCNC(=O)CN2CCN3CCN4CCN(CC2)CC(=O)[O][Lu]([O]C(=O)C3)[O]C(=O)C4)N(C)C(=O)[C@H](Cc2ccccc2)NC1=O [RB-0003464] | < 1 nM |

Same assay, conditions: radioligand competition, [125I]-Tyr11-Somatostatin 0.1 nM, membrane extracts; Ki from IC50 by Cheng Prusoff; read-out: SSTR2 Ki

| SMILES | Ki |
| --- | --- |
| C[C@@H](O)[C@@H]1NC(=O)[C@H](CCCCN)NC(=O)[C@@H](Cc2c[nH]c3ccccc23)NC(=O)[C@H](Cc2ccc(O)cc2)NC(=O)[C@H](CCSCC(=O)NCCCCCCNC(=O)CN2CCN3CCN4CCN(CC2)CC(=O)[O][Lu]([O]C(=O)C3)[O]C(=O)C4)N(C)C(=O)[C@H](Cc2cccc(C(N)=O)c2)NC1=O [RB-0003306] (cyclo(KT[Phe(3-CONH2)][NMehCys](DOTA(Lu)NH(CH2)6NHCOCH2)Y[dW])) | 1 to 3.33 nM |
| C[C@@H](O)[C@@H]1NC(=O)[C@H](CCCCN)NC(=O)[C@@H](Cc2c[nH]c3cc(F)ccc23)NC(=O)[C@H](Cc2ccc(O)cc2)NC(=O)[C@H](CCSCC(=O)NCCCCCCNC(=O)CN2CCN3CCN4CCN(CC2)CC(=O)[O][Lu]([O]C(=O)C3)[O]C(=O)C4)N(C)C(=O)[C@H](Cc2ccccc2)NC1=O [RB-0003309] (cyclo(F[NMehCys](DOTA(Lu)NH(CH2)6NHCOCH2)Y[dTrp(6-F)]KT)) | < 1 nM |
| C[C@H](O)[C@@H]1NC(=O)[C@H](CCCCN)NC(=O)[C@@H](Cc2c[nH]c3ccccc23)NC(=O)[C@H](Cc2ccc(O)cc2)NC(=O)[C@H](CCSCC(=O)NCCOCCOCCOCCNC(=O)CN2CCN3CCN4CCN(CC2)CC(=O)[O][Lu]([O]C(=O)C3)[O]C(=O)C4)N(C)C(=O)[C@H](Cc2ccccc2)NC1=O [RB-0003357] | < 1 nM |
| C[C@@H](O)[C@@H]1NC(=O)[C@H](CCCCN)NC(=O)[C@@H](Cc2c[nH]c3ccccc23)NC(=O)[C@H](Cc2ccc(O)cc2)NC(=O)[C@H](CCSCCC(=O)NCCCCCCNC(=O)CN2CCN3CCN4CCN(CC2)CC(=O)[O][Lu]([O]C(=O)C3)[O]C(=O)C4)N(C)C(=O)[C@H](Cc2ccccc2)NC1=O [RB-0003374] | < 1 nM |
| C[C@@H](O)[C@@H]1NC(=O)[C@H](CCCCN)NC(=O)[C@@H](Cc2c[nH]c3ccccc23)NC(=O)[C@H](Cc2ccc(O)cc2)NC(=O)[C@H](CCSCCC(=O)NCCCCC[C@H](NC(=O)CN2CCN3CCN4CCN(CC2)CC(=O)[O][Lu]([O]C(=O)C3)[O]C(=O)C4)C(=O)O)N(C)C(=O)[C@H](Cc2ccccc2)NC1=O [RB-0003375] | 1 to 3.33 nM |
| C[C@@H](O)[C@@H]1NC(=O)[C@H](CCCCN)NC(=O)[C@@H]([C@@H](C)c2c[nH]c3ccccc23)NC(=O)[C@H](Cc2ccncc2)NC(=O)[C@H](CCSCC(=O)NCCCCCCNC(=O)CN2CCN3CCN4CCN(CC2)CC(=O)[O][Lu]([O]C(=O)C3)[O]C(=O)C4)N(C)C(=O)[C@H](Cc2ccccc2)NC1=O [RB-0003381] (cyclo([4Pal][dTrp(βS-Me)]KTF[NMehCys](DOTA(Lu)NH(CH2)6NHCOCH2))) | < 1 nM |
| C[C@@H](O)[C@@H]1NC(=O)[C@H](CCCCN)NC(=O)[C@@H]([C@@H](C)c2c[nH]c3ccccc23)NC(=O)[C@H](Cc2cccnc2)NC(=O)[C@H](CCSCC(=O)NCCCCCCNC(=O)CN2CCN3CCN4CCN(CC2)CC(=O)[O][Lu]([O]C(=O)C3)[O]C(=O)C4)N(C)C(=O)[C@H](Cc2ccccc2)NC1=O [RB-0003382] (cyclo([3Pal][dTrp(βS-Me)]KTF[NMehCys](DOTA(Lu)NH(CH2)6NHCOCH2))) | < 1 nM |
| C[C@H](c1ccccc1)[C@@H]1NC(=O)[C@H](CCSCC(=O)NCCCCCCNC(=O)CN2CCN3CCN4CCN(CC2)CC(=O)[O][Lu]([O]C(=O)C3)[O]C(=O)C4)N(C)C(=O)[C@H](Cc2ccccc2)NC(=O)[C@H]([C@@H](C)O)NC(=O)[C@H](CCCCN)NC(=O)[C@@H]([C@@H](C)c2c[nH]c3ccccc23)NC1=O [RB-0003383] (cyclo(F[NMehCys](DOTA(Lu)NH(CH2)6NHCOCH2)[Phe(3R-Me)][dTrp(βS-Me)]KT)) | < 1 nM |
| C[C@@H](O)[C@@H]1NC(=O)[C@H](CCCCN)NC(=O)[C@@H](Cc2c[nH]c3ccccc23)NC(=O)[C@H](Cc2ccncc2)NC(=O)[C@H](CCSCC(=O)NCCCCCCNC(=O)CN2CCN3CCN4CCN(CC2)CC(=O)[O][Lu]([O]C(=O)C3)[O]C(=O)C4)N(C)C(=O)[C@H](Cc2ccncc2)NC1=O [RB-0003443] (cyclo([4Pal][NMehCys](DOTA(Lu)NH(CH2)6NHCOCH2)[4Pal][dW]KT)) | 10 to 33.3 nM |
| C[C@@H](O)[C@@H]1NC(=O)[C@H](CCCCN)NC(=O)[C@@H](Cc2c[nH]c3ccccc23)NC(=O)[C@H](Cc2ccncc2)NC(=O)[C@H](CCSCC(=O)NCCCCCCNC(=O)CN2CCN3CCN4CCN(CC2)CC(=O)[O][Lu]([O]C(=O)C3)[O]C(=O)C4)N(C)C(=O)[C@H](Cc2cccnc2)NC1=O [RB-0003445] (cyclo([3Pal][NMehCys](DOTA(Lu)NH(CH2)6NHCOCH2)[4Pal][dW]KT)) | 3.33 to 10 nM |
| C[C@@H](O)[C@@H]1NC(=O)[C@H](CCCCN)NC(=O)[C@@H](Cc2c[nH]c3ccccc23)NC(=O)[C@H](Cc2ccncc2)NC(=O)[C@H](CCSCC(=O)NCCCCCCNC(=O)CN2CCN3CCN4CCN(CC2)CC(=O)[O][Lu]([O]C(=O)C3)[O]C(=O)C4)N(C)C(=O)[C@H]([C@@H](C)c2ccccc2)NC1=O [RB-0003447] (cyclo([4Pal][dW]KT[X4][NMehCys](DOTA(Lu)NH(CH2)6NHCOCH2))) | 3.33 to 10 nM |
| C[C@H](c1ccccc1)[C@@H]1NC(=O)[C@H]([C@@H](C)O)NC(=O)[C@H](CCCCN)NC(=O)[C@@H](Cc2c[nH]c3ccccc23)NC(=O)[C@H](Cc2ccncc2)NC(=O)[C@H](CCSCC(=O)NCCCCCCNC(=O)CN2CCN3CCN4CCN(CC2)CC(=O)[O][Lu]([O]C(=O)C3)[O]C(=O)C4)N(C)C1=O [RB-0003449] (cyclo([4Pal][dW]KT[Phe(3R-Me)][NMehCys](DOTA(Lu)NH(CH2)6NHCOCH2))) | 10 to 33.3 nM |
| C[C@@H](O)[C@@H]1NC(=O)[C@H](CCCCN)NC(=O)[C@@H](Cc2c[nH]c3ccccc23)NC(=O)[C@H](Cc2ccncc2)NC(=O)[C@H](CCSCC(=O)NCCCCCCNC(=O)CN2CCN3CCN4CCN(CC2)CC(=O)[O][Lu]([O]C(=O)C3)[O]C(=O)C4)N(C)C(=O)[C@H](Cc2ccc(O)nc2)NC1=O [RB-0003451] (cyclo([4Pal][dW]KT[X22][NMehCys](DOTA(Lu)NH(CH2)6NHCOCH2))) | 3.33 to 10 nM |
| C[C@@H](O)[C@@H]1NC(=O)[C@H](CCCCN)N(C)C(=O)[C@@H](Cc2c[nH]c3ccccc23)N(C)C(=O)[C@H](Cc2ccc(O)cc2)NC(=O)[C@H](CCSCC(=O)NCCCCCCNC(=O)CN2CCN3CCN4CCN(CC2)CC(=O)[O][Lu]([O]C(=O)C3)[O]C(=O)C4)N(C)C(=O)[C@H](Cc2ccccc2)NC1=O [RB-0003455] (cyclo(F[NMehCys](DOTA(Lu)NH(CH2)6NHCOCH2)Y[dNMeW][NMeK]T)) | < 1 nM |
| C[C@@H](O)[C@@H]1NC(=O)[C@H](CCCCN)NC(=O)[C@@H](Cc2c[nH]c3ccccc23)NC(=O)[C@H](Cc2ccc(O)cc2)NC(=O)[C@H](CCCSCC(=O)NCCCCCNC(=O)CN2CCN3CCN4CCN(CC2)CC(=O)[O][Lu]([O]C(=O)C3)[O]C(=O)C4)N(C)C(=O)[C@H](Cc2ccccc2)NC1=O [RB-0003482] | < 1 nM |
| C[C@@H](O)[C@@H]1NC(=O)[C@H](CCCCN)NC(=O)[C@@H](Cc2c[nH]c3ccccc23)NC(=O)[C@H](Cc2ccc(O)cc2)NC(=O)[C@H](CCCSCC(=O)NCCCCCCNC(=O)CN2CCN3CCN4CCN(CC2)CC(=O)[O][Lu]([O]C(=O)C3)[O]C(=O)C4)N(C)C(=O)[C@H](Cc2ccccc2)NC1=O [RB-0003484] | < 1 nM |
| C[C@@H](O)[C@@H]1NC(=O)[C@H](CCCCN)NC(=O)[C@@H](Cc2c[nH]c3ccccc23)NC(=O)[C@H](Cc2ccc(O)cc2)NC(=O)[C@H](CCCSCC(=O)NCCOCCNC(=O)CN2CCN3CCN4CCN(CC2)CC(=O)[O][Lu]([O]C(=O)C3)[O]C(=O)C4)N(C)C(=O)[C@H](Cc2ccccc2)NC1=O [RB-0003486] | < 1 nM |

Same assay, conditions: read-out: SSTR2 Ki

| Ki | SMILES |
| --- | --- |
| 1 to 3.33 nM | C[C@@H](O)[C@@H]1NC(=O)[C@H](CCCCN)NC(=O)[C@@H]([C@@H](C)c2c[nH]c3ccccc23)NC(=O)[C@H](Cc2ccncc2)NC(=O)[C@H](CCSCC(=O)NCCCCCCNC(=O)CN2CCN(CC(=O)O)CCN(CC(=O)O)CCN(CC(=O)O)CC2)N(C)C(=O)[C@H](Cc2cccnc2)NC1=O [RB-0003407] (cyclo([3Pal][NMehCys](X3)[4Pal][dTrp(βS-Me)]KT)) |
| 1 to 3.33 nM | C[C@H](c1ccccc1)[C@@H]1NC(=O)[C@H]([C@@H](C)O)NC(=O)[C@H](CCCCN)NC(=O)[C@@H]([C@@H](C)c2c[nH]c3ccccc23)NC(=O)[C@H](Cc2ccncc2)NC(=O)[C@H](CCSCC(=O)NCCCCCCNC(=O)CN2CCN(CC(=O)O)CCN(CC(=O)O)CCN(CC(=O)O)CC2)N(C)C1=O [RB-0003408] |
| < 1 nM | C[C@@H](O)[C@@H]1NC(=O)[C@H](CCCCN)NC(=O)[C@@H]([C@@H](C)c2c[nH]c3ccccc23)NC(=O)[C@H](Cc2ccncc2)NC(=O)[C@H](CCSCC(=O)NCCCCCCNC(=O)CN2CCN(CC(=O)O)CCN(CC(=O)O)CCN(CC(=O)O)CC2)N(C)C(=O)[C@H]([C@@H](C)c2ccccc2)NC1=O [RB-0003409] |
